Reference: patent US20130317096A1, “SYNERGISTIC INTERACTION OF AT LEAST ONE VITAMIN E COMPONENT AND TYROSINASE INHIBITORS FOR DERMATOLOGICAL APPLICATIONS” (Davos Life Science Pte Ltd, priority 2010, published 2013)
Entries after “also recorded” stand apart in the source; their conditions may differ.

Experiments:
B16 melanoma cells [1] = assay: MTT cell viability assay; format: cell-based, mouse; conditions: 24 hrs of treatment, increasing dosages
Method: B16 mouse melanoma cells were purchased from (ATCC, Manassas, Va., USA).
The base medium for the cell line was Dulbecco's modified Eagle's medium (DMEM). To make the complete growth medium, fetal bovine serum (final concentration, 10%) was added to the base medium. Tocotrienol (T3) and tocopherol (TP) isomers and the palm tocotrienol-rich fraction (TRF) were purified from a palm fatty acid distillate (PFAD) using molecular distillation and Novasep® equipment (Novasep, Pompey, France). The extraction facility is located in Tuas, Singapore. The PFAD feed was purchased from Kuala Lumpur Kepong Berhad (Kuala Lumpur, Malaysia). The purity of the vitamin E isomers was verified by HPLC and gas chromatography (GC) percentage peak area.
For the cell viability study, 5×10^3 cells re-suspended in 100 μl of medium were plated into each well of a 96-well plate. The cells were then treated with different concentrations of the vitamin-E isomers for 24 hrs. After the treatment, 20 μl of MTT solution (1 mg/ml in PBS; Sigma-Aldrich, St. Louis, Mo., USA) was added to each well and the cells were incubated at 37° C. for 2 hrs. The formazan crystals were then re-suspended in 200 μl of DMSO and the intensity at 595 nm was measured.

[2] = system: cleaved caspase 3 and PARP; assay: Western blot of apoptotic molecules; format: cell-based, mouse; conditions: B16 melanoma cells
tyrosinase mRNA = assay: Reverse transcriptase PCR of tyrosinase mRNA; format: cell-based, mouse; conditions: B16 melanoma cells
Source text: Total RNA was isolated using Trizol reagent according to the manufacturer's protocol (Invitrogen, Carlsbad, Calif., USA). cDNA was synthesized using the SuperScript First Strand Synthesis System (Invitrogen, Carlsbad, Calif., USA) and was then amplified by PCR with tyrosinase-specific primers (forward primer, tyrosinase-S,5′-[…]-3′ [−2236/−2217] (SEQ ID NO: 1) and reverse primer, tyrosinase-AS,5′-[…]-3′ [+63/+42]) (SEQ ID NO: 2) and GAPDH specific primers: 5′ to 3′F […] (SEQ ID NO: 3); 5′ to 3′R […] (SEQ ID NO: 4). The PCR cycling protocol was as follows: 30 cycles for 10 min at 95° C., 30 sec at 95° C., 30 sec at 55° C., 1 min at 72° C., and 10 min at 72° C. Glyceraldehyde 3-phosphate dehydrogenase (GAPDH) was amplified as an internal control. The PCR products were electrophoresed on a 2% agarose gel and analyzed using a gel documentation system.

tyrosinase [3] = assay: Western blot of tyrosinase protein expression in B16 melanoma cells; format: cell-based, mouse; conditions: for tyrosinase protein expression: 20 μM treatment; for tyrosinase protein suppression, dose response and relative potency: increasing dosage; for time response of tyrosinase suppression: single dose, 24 hrs versus 48 hrs
Method: Carcinogenesis, 2006, 27, 2180-9. Briefly, cell lysates were prepared by suspending cell pellets in lysis buffer (50 mmol/l Tris-HCl [pH 8.0], 150 mmol/l NaCl, 1% NP40, 0.5% deoxycholate, 0.1% SDS, […], 1 μg/ml leupeptin, and 1 mmol/l phenylmethylsulfonyl fluoride). The protein concentration was measured using the DC Protein Assay kit (Bio-Rad, Hercules, Calif., USA). An equal amount of protein (30 μg) was loaded onto a 10% SDS polyacrylamide gel for electrophoresis, then transferred onto a polyvinylidene difluoride membrane (Amersham, Piscataway, N.J., USA). The membrane was then incubated with primary antibodies for 1 hr at room temperature against tyrosinase, Id1, and beta-actin (Santa Cruz Biotechnology, Inc., Santa Cruz, Calif., USA). After incubation with appropriate secondary antibodies, signals were visualized by an ECL Western blotting system (Amersham). The expression of β-actin was assessed as an internal loading control for total cell lysate.

B16 melanoma cells [4] = assay: Melanin content of treated B16 melanoma cells; format: cell-based, mouse; conditions: for melanin content lower than controls: 20 μM
Method: (§1) At different time points, cells were harvested using trysin-EDTA and the cell pellets were washed once with phosphate-buffered saline (PBS). A sample amount from each compound treatment group was divided into two equal parts. These cell pellets were then stored at −80° C. prior to the measurement of the tyrosinase activity and melanin content.
Harvested cell pellets were dissolved in 1 ml of 1N sodium hydroxide before incubation at 80° C. The melanin content was then immediately measured at 420 nm. The absorbance percentage values of the treated groups in comparison to untreated controls were calculated against per μg of the determined total protein content.

B16 melanoma cells [5] = assay: Anti-pigmentation effect, photographs of cell pellets; format: cell-based, mouse; conditions: 20 μM
Method: as §1

[6] = system: B16 cells xenografted on the flank of nude mice; assay: B16 xenograft model in nude mice; format: in vivo; conditions: cells pre-treated with 20 μM for 1 week, 14 days oral supplementation
Method: The experimental protocol was approved by the IACUC Committee of the A-STAR Biological Resource Centre (BRC) at Biopolis (IACUC no. 080302). Male BALB/c athymic nude mice (4-5 weeks old, 18-22 g) were purchased from The Jackson Laboratory (Bar Harbor, Me., USA). Mice were housed in Department 1 of the Biological Resource Centre (Biopolis, Singapore) under the standard condition (20.8±2° C., 55±1% relative humidity, 12 hrs light/dark cycle) with rodent diet (Harlan Laboratories, Inc., Indianapolis, Ind., USA) and chlorinated reverse osmosis water supplied in a pathogen-free environment. Briefly, B16 cells were pre-treated with 20 μM of γ- and δ-T3, or palm TRF for 1 week. Then, 5×10^5 pre-treated B16 cells in 100 μl serum-free DMEM were injected subcutaneously into the flank of nude mice using a 1-ml syringe with a 26-gauge needle (Becton Dickinson, Franklin Lakes, N.J., USA). This was followed by a 2-week oral supplementation of γ- and δ-T3, or palm TRF at the dose of 100 mg/kg/day. Altogether, there are four experimental groups: G1, vehicle control; G2, γT3 (100 mg/kg/d); G3, δT3 (100 mg/kg/d); and G4, full spectrum palm TRF (100 mg/kg/d). The mice were weighed daily and the tumors were measured using a Digital Carbon Fiber Caliper (Fisher Scientific, Pittsburgh, Pa., USA) at the 5th and 14th day after innoculation. After 14 days of treatment, the mice were euthanized by CO2 inhalation. Blood samples were collected through cardiac bleeding using a 26-gauge needle. Blood samples were incubated at room temperature for 30 min, followed by centrifugation at 4400 rpm for 30 min at 4° C. Serum, as the supernatant, was separated from plasma and stored at −80° C. Tumors, liver, kidney, spleen, lung, heart, and skin were harvested.

tyrosinase [7] = assay: UV-induced tyrosinase protein expression, Western blot; format: cell-based, mouse
Method: (§2) The UVB source for cell irradiation was provided using a UVP UVM-57 handheld UV lamp (UVP Inc, Upland, Calif., USA).
Briefly, cell lysates were prepared by suspending cell pellets in lysis buffer (50 mmol/l Tris-HCl [pH 8.0], 150 mmol/l NaCl, 1% NP40, 0.5% deoxycholate, 0.1% SDS, 1 mg/ml aprotinin, 1 μg/ml leupeptin, and 1 mmol/l phenylmethylsulfonyl fluoride). The protein concentration was measured using the DC Protein Assay kit (Bio-Rad, Hercules, Calif., USA). An equal amount of protein (30 μg) was loaded onto a 10% SDS polyacrylamide gel for electrophoresis, then transferred onto a polyvinylidene difluoride membrane (Amersham, Piscataway, N.J., USA). The membrane was then incubated with primary antibodies for 1 hr at room temperature against tyrosinase, Id1, and beta-actin (Santa Cruz Biotechnology, Inc., Santa Cruz, Calif., USA). After incubation with appropriate secondary antibodies, signals were visualized by an ECL Western blotting system (Amersham). The expression of β-actin was assessed as an internal loading control for total cell lysate.

B16 cells = assay: Melanin content of pre-treated B16 cells after UV exposure; format: cell-based, mouse; conditions: 10 minutes UV exposure (short and long wave UV)
Source text: as §2

CC(C)=CCC/C(C)=C/CC/C(C)=C/CC[C@]1(C)CCc2cc(O)cc(C)c2O1 [δ-tocotrienol, 8-methyltocotrienol]
B16 melanoma cell viability / proliferation rate (B16 melanoma cells [1]): inhibited the proliferation rate of B16 melanoma cells in a dose-dependent fashion; also recorded: inhibit B16 melanoma cell viability at high concentrations | induction of apoptotic molecules (cleaved caspase 3 and PARP) [2]: induced critical apoptotic molecules in a dose-dependent manner | induction of apoptotic molecules (cleaved caspase 3 and PARP) ([2]; listed as δ-T3): induced cellular apoptosis | tyrosinase mRNA (tyrosinase mRNA): No change of tyrosinase mRNA | tyrosinase mRNA (tyrosinase mRNA; listed as δ-T3): not affected | tyrosinase protein expression (tyrosinase [3]; listed as δ-T3): remarkable suppression of tyrosinase protein expression | tyrosinase protein expression (tyrosinase [3]; listed as δT3): suppresses tyrosinase protein expression | tyrosinase protein suppression, dose response and relative potency (tyrosinase [3]; listed as δ-T3): significant suppression of tyrosinase in a dose-dependent manner | tyrosinase protein suppression, dose response and relative potency (tyrosinase [3]; listed as δT3): most potent inhibitor of tyrosinase protein | time response of tyrosinase suppression (tyrosinase [3]; listed as δ-T3): enhanced by increasing the treatment period from 24 to 48 hrs | time response of tyrosinase suppression (tyrosinase [3]; listed as δT3): enhanced after a 48 hr incubation period | melanin content lower than controls (B16 melanoma cells [4]; day 5): 45% | melanin content lower than controls (B16 melanoma cells [4]; day 9): 30% | constitutive melanin synthesis (B16 melanoma cells [4]; B16 melanoma cells): suppress constitutive melanin synthesis | cell pellet pigmentation (B16 melanoma cells [5]; listed as delta-T3): lighter cell pigmentation | cell pellet pigmentation (B16 melanoma cells [5]; listed as δT3): lighter cell pigmentation | pigmentation of solid tumors [6]: lighter in colour compared to controls | tumor size [6]: significantly smaller | suppression of short-term UVB-induced tyrosinase activation (tyrosinase [7]; <10 min UVB): more potent than γT3 | tyrosinase protein expression of B16 cells exposed to UV (tyrosinase [7]; UV 1, 10, 30 and 60 minutes): significantly suppressed the tyrosinase protein expression | long-term inhibitory effect on UVB-induced tyrosinase activation (tyrosinase [7]; long-term UVB): comparable | melanin content after UV exposure (B16 cells): significantly suppressed the melanin content
